{"source": "PubChem BioAssay (NCI)", "test_in_all_cases": "inhibition of tumour cell growth, NCI panel, 48 h", "key": {"SK-MEL-2 melanoma": {"test_system": "SK-MEL-2 melanoma"}, "SK-MEL-28 melanoma": {"test_system": "SK-MEL-28 melanoma"}, "786-0 renal": {"test_system": "786-0 renal"}, "HCT-116 colon": {"test_system": "HCT-116 colon"}, "HOP-92 NSCLC": {"test_system": "HOP-92 NSCLC"}, "RPMI-8226 leukemia": {"test_system": "RPMI-8226 leukemia"}, "HCT-15 colon": {"test_system": "HCT-15 colon"}, "SW-620 colon": {"test_system": "SW-620 colon"}, "M14 melanoma": {"test_system": "M14 melanoma"}, "SK-OV-3 ovarian": {"test_system": "SK-OV-3 ovarian"}}, "note": "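Five compound concentrations were applied to cells in 96-well plates for 48 hours; endpoints were derived by simple linear interpolation of the resulting dose-response curve. GI50: concentration for 50% inhibition of growth. TGI denotes the concentration required for complete inhibition of growth.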", "data": [{"smiles": "NC(=O)N1N=C2c3ccccc3OC[C@H]2[C@@H]1c1ccccc1", "values": [{"measurement": "TGI", "setting": "SK-MEL-2 melanoma", "result": "> 100", "unit": "µM"}, {"measurement": "TGI", "setting": "SK-MEL-28 melanoma", "result": "> 100", "unit": "µM"}, {"measurement": "TGI", "setting": "786-0 renal", "result": "> 100", "unit": "µM"}, {"measurement": "TGI", "setting": "HCT-116 colon", "result": "> 39.2", "unit": "µM"}, {"measurement": "TGI", "setting": "HOP-92 NSCLC", "result": "> 100", "unit": "µM"}, {"measurement": "TGI", "setting": "RPMI-8226 leukemia", "result": "> 89.3", "unit": "µM"}, {"measurement": "TGI", "setting": "HCT-15 colon", "result": "> 81.6", "unit": "µM"}, {"measurement": "TGI", "setting": "SW-620 colon", "result": "> 100", "unit": "µM"}, {"measurement": "TGI", "setting": "M14 melanoma", "result": 5.59, "unit": "µM"}, {"measurement": "TGI", "setting": "SK-OV-3 ovarian", "result": "> 100", "unit": "µM"}]}, {"smiles": "COC(=O)c1sc(=S)c2sc(C(=O)OC)c(C(=O)OC)c2c1C(=O)OC", "values": [{"measurement": "GI50", "setting": "SK-MEL-2 melanoma", "result": 38.7, "unit": "µM"}, {"measurement": "TGI", "setting": "SK-MEL-2 melanoma", "result": "> 100", "unit": "µM"}, {"measurement": "GI50", "setting": "SK-MEL-28 melanoma", "result": 71.8, "unit": "µM"}, {"measurement": "TGI", "setting": "SK-MEL-28 melanoma", "result": "> 100", "unit": "µM"}, {"measurement": "GI50", "setting": "786-0 renal", "result": 89.4, "unit": "µM"}, {"measurement": "TGI", "setting": "786-0 renal", "result": "> 100", "unit": "µM"}, {"measurement": "GI50", "setting": "HCT-116 colon", "result": 45, "unit": "µM"}, {"measurement": "TGI", "setting": "HCT-116 colon", "result": "> 100", "unit": "µM"}, {"measurement": "GI50", "setting": "HOP-92 NSCLC", "result": 24.3, "unit": "µM"}, {"measurement": "TGI", "setting": "HOP-92 NSCLC", "result": "> 100", "unit": "µM"}, {"measurement": "GI50", "setting": "RPMI-8226 leukemia", "result": 22, "unit": "µM"}, {"measurement": "TGI", "setting": "RPMI-8226 leukemia", "result": 48.8, "unit": "µM"}, {"measurement": "GI50", "setting": "HCT-15 colon", "result": 38, "unit": "µM"}, {"measurement": "TGI", "setting": "HCT-15 colon", "result": "> 100", "unit": "µM"}, {"measurement": "GI50", "setting": "SW-620 colon", "result": 74800, "unit": "nM"}, {"measurement": "TGI", "setting": "SW-620 colon", "result": "> 100", "unit": "µM"}, {"measurement": "GI50", "setting": "M14 melanoma", "result": 32.5, "unit": "µM"}, {"measurement": "TGI", "setting": "M14 melanoma", "result": "> 100", "unit": "µM"}, {"measurement": "GI50", "setting": "SK-OV-3 ovarian", "result": "> 100", "unit": "µM"}, {"measurement": "TGI", "setting": "SK-OV-3 ovarian", "result": "> 100", "unit": "µM"}]}, {"smiles": "Nc1nc2c([nH]1)c1[nH]c3ccccc3c1c1[nH]c3ccccc3c21", "values": [{"measurement": "GI50", "setting": "SK-MEL-2 melanoma", "result": 16.2, "unit": "µM"}, {"measurement": "TGI", "setting": "SK-MEL-2 melanoma", "result": 32.4, "unit": "µM"}, {"measurement": "GI50", "setting": "SK-MEL-28 melanoma", "result": 11.5, "unit": "µM"}, {"measurement": "TGI", "setting": "SK-MEL-28 melanoma", "result": 23.7, "unit": "µM"}, {"measurement": "GI50", "setting": "786-0 renal", "result": 9.44, "unit": "µM"}, {"measurement": "TGI", "setting": "786-0 renal", "result": 22.6, "unit": "µM"}, {"measurement": "GI50", "setting": "HCT-116 colon", "result": 5.24, "unit": "µM"}, {"measurement": "TGI", "setting": "HCT-116 colon", "result": 18, "unit": "µM"}, {"measurement": "GI50", "setting": "HOP-92 NSCLC", "result": 9.12, "unit": "µM"}, {"measurement": "TGI", "setting": "HOP-92 NSCLC", "result": 22.2, "unit": "µM"}, {"measurement": "GI50", "setting": "RPMI-8226 leukemia", "result": 9.83, "unit": "µM"}, {"measurement": "TGI", "setting": "RPMI-8226 leukemia", "result": 28.3, "unit": "µM"}, {"measurement": "GI50", "setting": "HCT-15 colon", "result": 13.6, "unit": "µM"}, {"measurement": "TGI", "setting": "HCT-15 colon", "result": 31.4, "unit": "µM"}, {"measurement": "GI50", "setting": "SW-620 colon", "result": 3310, "unit": "nM"}, {"measurement": "TGI", "setting": "SW-620 colon", "result": 12.4, "unit": "µM"}, {"measurement": "GI50", "setting": "M14 melanoma", "result": 14.4, "unit": "µM"}, {"measurement": "TGI", "setting": "M14 melanoma", "result": 27.8, "unit": "µM"}, {"measurement": "GI50", "setting": "SK-OV-3 ovarian", "result": 16.2, "unit": "µM"}, {"measurement": "TGI", "setting": "SK-OV-3 ovarian", "result": 29.7, "unit": "µM"}]}, {"smiles": "CSc1ccc2c(c1)N(CCCN(C)C)c1ccccc1S2", "values": [{"measurement": "TGI", "setting": "SK-MEL-2 melanoma", "result": 29.5, "unit": "µM"}, {"measurement": "TGI", "setting": "SK-MEL-28 melanoma", "result": 6.7, "unit": "µM"}, {"measurement": "TGI", "setting": "786-0 renal", "result": 28.5, "unit": "µM"}, {"measurement": "TGI", "setting": "HCT-116 colon", "result": 26.9, "unit": "µM"}, {"measurement": "TGI", "setting": "HOP-92 NSCLC", "result": 26.8, "unit": "µM"}, {"measurement": "TGI", "setting": "RPMI-8226 leukemia", "result": 28.5, "unit": "µM"}, {"measurement": "TGI", "setting": "HCT-15 colon", "result": 30.4, "unit": "µM"}, {"measurement": "TGI", "setting": "SW-620 colon", "result": 41.8, "unit": "µM"}, {"measurement": "TGI", "setting": "M14 melanoma", "result": 17.8, "unit": "µM"}, {"measurement": "TGI", "setting": "SK-OV-3 ovarian", "result": 29.4, "unit": "µM"}]}, {"smiles": "COc1ccccc1CNCCCN1C(=O)c2ccc3c4c(ccc(c24)C1=O)C(=O)N(CCCNCCCCN)C3=O", "values": [{"measurement": "GI50", "setting": "SK-MEL-2 melanoma", "result": 0.233, "unit": "µM"}, {"measurement": "TGI", "setting": "SK-MEL-2 melanoma", "result": 0.49, "unit": "µM"}, {"measurement": "GI50", "setting": "SK-MEL-28 melanoma", "result": 0.425, "unit": "µM"}, {"measurement": "TGI", "setting": "SK-MEL-28 melanoma", "result": 1.54, "unit": "µM"}, {"measurement": "GI50", "setting": "786-0 renal", "result": 0.616, "unit": "µM"}, {"measurement": "TGI", "setting": "786-0 renal", "result": 3.67, "unit": "µM"}, {"measurement": "GI50", "setting": "HCT-116 colon", "result": 0.216, "unit": "µM"}, {"measurement": "TGI", "setting": "HCT-116 colon", "result": 0.694, "unit": "µM"}, {"measurement": "GI50", "setting": "HOP-92 NSCLC", "result": 0.4, "unit": "µM"}, {"measurement": "TGI", "setting": "HOP-92 NSCLC", "result": 1.65, "unit": "µM"}, {"measurement": "GI50", "setting": "RPMI-8226 leukemia", "result": 0.445, "unit": "µM"}, {"measurement": "TGI", "setting": "RPMI-8226 leukemia", "result": 6.13, "unit": "µM"}, {"measurement": "GI50", "setting": "HCT-15 colon", "result": 1.85, "unit": "µM"}, {"measurement": "TGI", "setting": "HCT-15 colon", "result": 10.8, "unit": "µM"}, {"measurement": "GI50", "setting": "SW-620 colon", "result": 161, "unit": "nM"}, {"measurement": "TGI", "setting": "SW-620 colon", "result": 0.858, "unit": "µM"}, {"measurement": "GI50", "setting": "M14 melanoma", "result": 0.355, "unit": "µM"}, {"measurement": "TGI", "setting": "M14 melanoma", "result": 1.15, "unit": "µM"}, {"measurement": "GI50", "setting": "SK-OV-3 ovarian", "result": 0.495, "unit": "µM"}, {"measurement": "TGI", "setting": "SK-OV-3 ovarian", "result": 2.86, "unit": "µM"}]}, {"smiles": "COc1cc(/C=C/C(=O)/C=C/c2ccc(-n3ccnc3)cc2)ccc1O", "values": [{"measurement": "GI50", "setting": "SK-MEL-2 melanoma", "result": 20.8, "unit": "µM"}, {"measurement": "TGI", "setting": "SK-MEL-2 melanoma", "result": 55.8, "unit": "µM"}, {"measurement": "GI50", "setting": "SK-MEL-28 melanoma", "result": 2.42, "unit": "µM"}, {"measurement": "TGI", "setting": "SK-MEL-28 melanoma", "result": 6.49, "unit": "µM"}, {"measurement": "GI50", "setting": "786-0 renal", "result": 2.01, "unit": "µM"}, {"measurement": "TGI", "setting": "786-0 renal", "result": 4.85, "unit": "µM"}, {"measurement": "GI50", "setting": "HCT-116 colon", "result": 1.45, "unit": "µM"}, {"measurement": "TGI", "setting": "HCT-116 colon", "result": 2.93, "unit": "µM"}, {"measurement": "GI50", "setting": "HOP-92 NSCLC", "result": 10.5, "unit": "µM"}, {"measurement": "TGI", "setting": "HOP-92 NSCLC", "result": 27.1, "unit": "µM"}, {"measurement": "GI50", "setting": "RPMI-8226 leukemia", "result": 1.54, "unit": "µM"}, {"measurement": "TGI", "setting": "RPMI-8226 leukemia", "result": 4.46, "unit": "µM"}, {"measurement": "GI50", "setting": "HCT-15 colon", "result": 2.48, "unit": "µM"}, {"measurement": "TGI", "setting": "HCT-15 colon", "result": 6.89, "unit": "µM"}, {"measurement": "GI50", "setting": "SW-620 colon", "result": 2340, "unit": "nM"}, {"measurement": "TGI", "setting": "SW-620 colon", "result": 5.78, "unit": "µM"}, {"measurement": "GI50", "setting": "M14 melanoma", "result": 2.24, "unit": "µM"}, {"measurement": "TGI", "setting": "M14 melanoma", "result": 5.98, "unit": "µM"}, {"measurement": "GI50", "setting": "SK-OV-3 ovarian", "result": 6.07, "unit": "µM"}, {"measurement": "TGI", "setting": "SK-OV-3 ovarian", "result": 36.1, "unit": "µM"}]}, {"smiles": "COc1cc(OC)c(OC)cc1/C=C\\c1ccnc2ccccc12", "values": [{"measurement": "TGI", "setting": "SK-MEL-2 melanoma", "result": 7.4, "unit": "µM"}, {"measurement": "TGI", "setting": "SK-MEL-28 melanoma", "result": "> 100", "unit": "µM"}, {"measurement": "TGI", "setting": "786-0 renal", "result": 61.6, "unit": "µM"}, {"measurement": "TGI", "setting": "HCT-116 colon", "result": 54.8, "unit": "µM"}, {"measurement": "TGI", "setting": "HOP-92 NSCLC", "result": 45, "unit": "µM"}, {"measurement": "TGI", "setting": "RPMI-8226 leukemia", "result": 99.1, "unit": "µM"}, {"measurement": "TGI", "setting": "HCT-15 colon", "result": "> 100", "unit": "µM"}, {"measurement": "TGI", "setting": "SW-620 colon", "result": "> 63.1", "unit": "µM"}, {"measurement": "TGI", "setting": "M14 melanoma", "result": 38.9, "unit": "µM"}, {"measurement": "TGI", "setting": "SK-OV-3 ovarian", "result": 9.68, "unit": "µM"}]}]}
